Measurements as given in patent publication US7923585B2, “Menthol derivative and cooling agent composition comprising the same” (Takasago International Corporation, priority 2004, dated 2011).

Tested on: expert panelists (oral evaluation)
Experiment: Sensory evaluation: oral evaluation of an aqueous solution by expert panelists
Format: in vivo, human
Conditions: 20 ppm, 7 expert panelists, all seven gave this evaluation
Description: Oral evaluation of an aqueous solution of 2-(2-l-menthyloxyethyl)ethanol obtained in Example 1 in a concentration of 20 ppm was carried out by 7 expert panelists having 5 years or longer experience.

Compound: CC(C)[C@@H]1CC[C@@H](C)C[C@H]1OCCOCCO [2-(2-l-menthyloxyethyl)ethanol]
- cool and refreshing feeling quality (oral evaluation): excellent cool and refreshing feeling quality
